Values quoted from earlier work as cited in patent US20190321395A1, “TREATMENT OF PSORIASIS, SEBORRHEIC DERMATITIS, AND ECZEMA OF THE HEAD AND NECK” (Oread Therapeutics, priority 2018, published 2019).

| SMILES | Water Solubility [µg/mL] |
| --- | --- |
| [O-][n+]1ccccc1[S-].[O-][n+]1ccccc1[S-].[Zn+2] [Pyrithione Zinc] | 86.00 |
| CC(=O)N1CCN(c2ccc(OCC3COC(Cn4ccnc4)(c4ccc(Cl)cc4Cl)O3)cc2)CC1 (centres unmarked) [Ketoconazole] | 0.9 |
